A short description of the series: phase I pharmacokinetic study of tenatoprazole, oral single dose and daily dose for 7 days. Type of series: in vivo, Caucasian individuals. How it is done:
The doses tested were 10, 20, 40 and 80 mg of tenatoprazole.

Regarding `COc1ccc2[nH]c([S+]([O-])Cc3ncc(C)c(OC)c3C)nc2n1` (stereo not drawn) [tenatoprazole, 5-methoxy-2-[[(4-methoxy-3,5-dimethyl-2-pyridyl)methyl]sulfinyl]imidazo[4,5-b]pyridine], the half-life at 7 days (human, plasma, after administration for seven days, depending on the dose (10-80 mg), read-out: mean elimination half-lives) lay in the range of 5 to 9.2 h. The T½ elimination half-life is recorded as 9 h (repeated dose (7 days), 40 mg) and 7 h (single dose, 80 mg).

(Values after patent US20120122919A1, “PHARMACEUTICAL COMPOSITION COMBINING TENATOPRAZOLE AND A HISTAMINE H2-RECEPTOR ANTAGONIST” (priority 2002, published 2012).)
